Key:
Type in all cases: physicochemical
[1] = Fluorescence response to trifluoroacetic acid / DBU in acetonitrile
Experimental: A 30 μM solution of Compound 6 in acetonitrile was prepared by adding 99 μL of a stock solution of 3.04 mM Compound 6 in methanol to 10 mL of acetonitrile. An initial fluorescence emission spectrum of the solution was obtained and is illustrated by curve (i) in FIG. 1A.
A series of approximately 13.8 μL aliquots of trifluoroacetic acid (TFA) were then added to the 30 μM solution of Compound 6 until a total concentration of 60.0 mM of TFA was present in the solution. (The total amount of TFA present in the solution corresponded to 2000 equivalents of acid per equivalent of Compound 6.) The fluorescence emission spectrum of the resulting solution was obtained and is illustrated by curve (ii) in FIG. 1A.
A base, i.e., 1,8-diazabicyclo[5.4.0]undec-7-ene (DBU), was then added to the solution to neutralize the acid until a concentration of 90 mM DBU was obtained. The fluorescence emission spectrum of the resulting solution was obtained and is illustrated by curve (iii) in FIG. 1A. The fluorescence emission intensity at λem,max=565 nm increased as the amount of base present in the system increased and the fluorescence emission intensity at λem,max=405 nm decreased as the amount of base present in the system increased, which reflected Compound 6's ratiometric response to the changing base concentration in acetonitrile.
A 30 μM solution of Compound 7 in acetonitrile was prepared by adding 84 μL of a stock solution of 3.58 mM Compound 7 in methanol to 10 mL of acetonitrile. The emission spectrum of the solution was then obtained and is illustrated by curve (i) in FIG. 1B.
A series of approximately 13.8 μL aliquots of TFA were then added to the 30 μM solution of Compound 7 until a total concentration of 60.0 mM TFA was present in the solution (which corresponded to 2000 equivalents of acid per equivalent of Compound 7). The fluorescence emission spectrum of the solution was obtained and is illustrated by curve (ii) in FIG. 1B.
After the 60 mM TFA concentration was achieved, DBU was gradually added to the solution until a total concentration of 90 mM DBU was present in the solution. The fluorescence spectrum of the solution was obtained and is illustrated by curve (iii) in FIG. 1B.
An aliquot of 50 μL of trifluoroacetic acid was then added to the system, and the fluorescence emission spectrum was obtained and is illustrated by the curved line with a peak at 360 nm in FIG. 6A.
Compound 10 was placed in neat acetonitrile and its emission spectrum was monitored as trifluoroacetic acid was added to the acetonitrile in incremental amounts to achieve a solution that included an acid concentration ranging from 0 to 0.2 M. After each acid addition the sample was excited with radiation of a wavelength 340 nm, and its fluorescence emission spectrum was monitored. The results are illustrated in FIG. 7A.
The solution of Compound 10 in acetonitrile was titrated with trifluoroacetic acid (TFA). […] The first stage, which occurred with the addition of the initial aliquots of TFA, was a slight increase intensity at 580 nm, as illustrated in FIG. 7A. As more TFA was added to the system, a second transition occurred in which the emission at 580 nm began to decrease and as the emission at 400 nm began to increase, as illustrated in FIG. 7B. A plot of the emission intensity at 580 nm versus pH and at 400 nm versus pH is illustrated in FIG. 7C.
Compounds 10, 11, and 12 were then each individually added, at a concentration of 30 μM, to acetonitrile and the emission spectrum of each was monitored. The compounds emitted at 600 nm with an intensity of about 7.57×10^5 arbitrary units (a.u.) in neat acetonitrile. […] FIG. 8B illustrates the emission properties of Compound 12.

[2] = Fluorescence response to hydrophobic environment (acetonitrile in water, SDS)
Experimental: Compound 12 was placed in water and the intensity of its fluorescence emission at 600 nm was monitored as the concentration of acetonitrile was increased from 0 volume to volume (v/v) % to 100 v/v % in increments of 10 v/v %.
Compound 12 was added to an aqueous solution of sodium dodecylsulfate (SDS) and monitored for fluorescence emission at 600 nm.

[3] = Ultraviolet-visible light spectrum (maximum absorbance wavelength)
Experimental: Method for Obtaining an Ultraviolet-Visible Light Spectrum
Ultraviolet-visible (UV-Vis) Light spectra are obtained and recorded on an Agilent 8453 spectrophotometer using ChemStation software (Agilent Technologies, Inc., Santa Clara, Calif.).
(§1) The compounds were analyzed at 298° K according to the Method for Obtaining Ultraviolet-Visible Light Spectrum (30 μM acetonitrile) to obtain the maximum absorbance wavelength (λabs,max), Method for Obtaining Fluorescence Emission Spectrum (30 μM acetonitrile) to obtain the maximum emission wavelength (λem,max) and Method for Determining Quantum Yield (ΦF) (30 μM acetonitrile) at the concentration, in the solvent, and with the counter ion indicated in Table 1. The compounds included hydrogen at each R group that is not otherwise specified.
(§2) Compounds 6, 7, 9, 11-14 and 21 were analyzed according to: the Method for Obtaining Ultraviolet-Visible Light Spectrum to obtain the maximum absorbance wavelength (λabs,max), the Method for Obtaining Fluorescence Emission Spectrum to obtain the maximum emission wavelength (λem,max), and the Method for Determining Quantum Yield (ΦF) in the solvent and with the counter ion indicated in Table 3.

[4] = Fluorescence quantum yield, integrating sphere
Experimental: Method for Determining Quantum Yield
Quantum yield is determined using an integrating sphere attached to a QM-4-CW Spectrofluorometer using FeliX32 software (Photon Technology International).
as §1, §2

[5] = Fluorescence response to pH in buffered water; conditions: for fluorescence emission in water at pH 7.5: water pH 7.5
Experimental: Stock solutions of each compound (having a concentration of from 1-5 mM) were prepared by dissolving the corresponding salts of the compounds in methanol or 1V, N-dimethylformamide, and then diluting the same with acetonitrile or buffered water having a pH of from 2.5 to 7.5 derived from 0.2 M […] and 0.1 M citric acid, to achieve a sample solution having a compound concentration of 30.0 μM.
The emission spectrum for each sample was obtained. The results are illustrated by the plot in FIG. 2A.
The emission spectrum for each sample was obtained. […] The results are illustrated in the plot of FIG. 2B.
The fluorescence emission spectrum of Compound 8 in water having a pH of 2.5 was also obtained and is illustrated by the curved line with a peak at 360 nm in FIG. 5B.
Compounds 10, 11, and 12 were each individually added, at a concentration of 30 μM, to water having a pH=7.5 and the emission spectra of each were obtained. […] As the pH was decreased from 7.5 to 2.5 in 0.5 pH unit increments, fluorescence emission at 600 nm remained relatively nonexistent and the intensity of the fluorescence emission at 400 nm increased in correlation to the decrease in pH. FIG. 8A illustrates the emission properties of Compound 12.

[6] = Fluorescence emission spectrum (maximum emission wavelength)
Experimental: Method for Obtaining a Fluorescence Emission Spectrum
Fluorescence emission spectra are obtained and recorded on a QM-4-CW Spectrofluorometer using FeliX32 software (Photon Technology International, Inc., Birmingham, N.J.).
as §1, §2

[7] = Fluorescence response to pH in buffered water; conditions: 10 μM in water, pH = 7.5
[8] = pKa from fluorescence intensity versus pH; conditions: non-linear regression of fluorescence intensity versus pH, buffered water pH 2.5 to 7.5
Experimental: Method for Determining pKa
A pKa value is determined by plotting fluorescence intensity (Imax) at emission maxima against pH and fitting the result to the non-linear expression in equation (1) (i.e., eq.(1)). In eq (1), a and b are the molar coefficient of the acid (HA) and base (A^−) form, respectively, and c is the combined overall concentration of the acid and base form. i.e., c=[HA]+[A^−].

[9] = 30 μM acetonitrile, 298 K, Table 1

CCN(CC)c1ccc(-n2cc3cccc(-c4cn(-c5ccc(C)cc5)nn4)[n+]3c2)cc1.[Cl-] [Compound 12, 2-(4-(diethylamino)phenyl)-5-(1-(p-tolyl)-1H-1,2,3-triazol-4-yl)-2H-imidazo[1,5-a]pyridin-4-ium chloride]
emission intensity at 400 nm ([1]; 30 μM in acetonitrile + 50 μL trifluoroacetic acid): 1.34×10^6 a.u.
emission intensity at 600 nm ([1]; 30 μM in neat acetonitrile): about 7.57×10^5 arbitrary units (a.u.)
emission wavelength ([1]; 30 μM in neat acetonitrile): 600 nm
emission wavelength λem,max ([1]; acetonitrile + 50 μL trifluoroacetic acid): 400 nm
fluorescence intensity at 600 nm ([2]; 100 v/v % acetonitrile): 6.48×10^5 a.u.
fluorescence intensity at 600 nm ([2]; water, 0 v/v % acetonitrile): 7.81×10^3 a.u.
λabs, max Abs ([3]; H2O pH = 2.2, 30 μM): 340 nm
λabs, max Abs ([3]; H2O pH = 7.5, 30 μM): 340 nm
λabs, max Abs ([3]; MeCN + 50 μL TFA, 30 μM): 340 nm
λabs, max Abs ([3]; MeCN, 30 μM): 340 nm
[…]F (quantum yield) ([4]; H2O pH = 2.2, 30 μM): 66%
[…]F (quantum yield) ([4]; H2O pH = 7.5, 30 μM): 0%
[…]F (quantum yield) ([4]; MeCN + 50 μL TFA, 30 μM): 57%
[…]F (quantum yield) ([4]; MeCN, 30 μM): 30%
fluorescence emission in water at pH 7.5 [5]: essentially no fluorescence emission
λem, max Em ([6]; H2O pH = 2.2, 30 μM): 400 nm
λem, max Em ([6]; MeCN + 50 μL TFA, 30 μM): 400 nm
λem, max Em ([6]; MeCN, 30 μM): 600 nm

CCN(CC)c1ccc(-n2cc3cccc[n+]3c2)cc1 [Compound 2, 2-(4-(diethylamino)phenyl)-2H-imidazo[1,5-a]pyridin-4-ium hexafluorophosphate]
λabs, max Abs [3, 9]: 330 nm
ΦF (quantum yield) [4, 9]: 30%
emission maxima λem [7]: 550 nm
fluorescence λem ([5]; Example 13B: pH decreased to 2.5): 360-375 nm
emission maxima λem ([5]; Example 13B: printed 'neat acetonitrile having a pH of 7.5' / 'pH=7.5 in water'): 550 nm
fluorescence λem ([5]; water, pH 2.5): 360-375 nm
λem, max Em [6, 9]: 515 nm

CCN(CC)c1ccc(-n2c[n+]3ccccc3c2-c2ccc(OC)cc2)cc1.[Cl-] [Compound 7, 2-(4-(diethylamino)phenyl)-1-(4-methoxyphenyl)-2H-imidazo[1,5-a]pyridin-4-ium chloride]
increase in cyan fluorescent intensity ([1]; 30 μM in acetonitrile after addition of 60.0 mM TFA): approximately 700 fold
λem,max (fluorescence emission) ([1]; 30 μM in acetonitrile in the presence of trifluoroacetic acid (60.0 mM TFA)): 450 nm
fluorescence emission in neat acetonitrile ([1]; acetonitrile without acid): essentially non-emissive
fluorescence intensity after base ([1]; acetonitrile, 60 mM TFA then 90 mM DBU): returned to zero
λabs, max Abs ([3]; H2O pH = 2.5, 30 μM): 340 nm
λabs, max Abs ([3]; H2O pH = 7.5, 30 μM): 340 nm
λabs, max Abs ([3]; MeCN + 13.8 uL TFA, 30 μM): 340 nm
λabs, max Abs ([3]; MeCN, 30 μM): 340 nm
pKa [8]: 4.4
ΦF (quantum yield) ([4]; 30 μM in acetonitrile with 60.0 mM TFA): 42%
quantum yield (ΦF) ([4]; 30 μM in acetonitrile, no acid, excited at 340 nm): 0.06%
[…]F (quantum yield) ([4]; H2O pH = 2.5, 30 μM): 42%
[…]F (quantum yield) ([4]; H2O pH = 7.5, 30 μM): 0%
[…]F (quantum yield) ([4]; MeCN + 13.8 uL TFA, 30 μM): 57%
[…]F (quantum yield) ([4]; MeCN, 30 μM): 0%
λem,max of the emission that increases as pH decreases ([5]; buffered water, 298 K, pH from 7.5 to 2.5): 450 nm
fluorescence emission in water at pH 7.5 [5]: essentially non-emissive
λem, max Em ([6]; H2O pH = 2.5, 30 μM): 450 nm
λem, max Em ([6]; MeCN + 13.8 uL TFA, 30 μM): 450 nm
